From patent US20070219186A1, “Pyrazolo[1,5-A]pyrimidine derivatives and methods of use thereof” (priority 2006, published 2007)
Like-named read-outs stand apart in the source and are kept apart here.

Target: T1, human B-Raf (Homo sapiens, UniProt P15056)
T1 construct: Flag; GST; made in house; host or cells: Sf9 insect cells (B-Raf); E. coli (MEK1-GST)
Assay: B-Raf Kinase to MEK1 ELISA
Assay type: biochemical
Conditions: for inhibition at 10 µM: read-out: % Inhib./10 uM
Text: TITLE: B-Raf Kinase to MEK1 ELISA
PURPOSE: To discover B-Raf Kinase inhibitors that can inhibit growth of tumor cells which contain oncogenic forms of Receptor Tyrosine Kinases or K-Ras, or B-Raf kinase.
Reagents: Flag/GST-tagged recombinant human B-Raf produced in Sf9 insect cells, human non-active Mek-1-GST (recombinant protein produced in E. coli); and a phospho-MEK1 specific poly-clonal Ab from Cell Signaling Technology (cat. #9121).
B-Raf1 Kinase Assay Procedure:
B-Raf-1 is used to phosphorylate GST-MEK1. MEK1 phosphorylation is measured by a phospho-specific antibody (from Cell Signaling Technology, cat. #9121) that detects phosphorylation of two serine residues at positions 217 and 221 on MEK1.
B-Raf Assay Stock Solutions:
1. Assay Dilution Buffer (ADB): 20 mM MOPS, pH 7.2, 25 mM β-glycerol phosphate, 5 mM EGTA, 1 mM sodium orthovanadate, 1 mM dithiothreitol.
2. Magnesium/ATP Cocktail: 200 μM cold ATP and 40 mM magnesium chloride in ADB.
3. Active Kinase: Active B-Raf: used at ˜20 ng per assay point.
4. Non-active GST-MEK1: Use at 100 nM (50 nM final).
6. Anti-GST Ab (Pharmacia)
7. Anti-rabbit Ab/Europium conjugate (Wallac)
1. Add 25 μl of ADB containing B-Raf and Mek per assay (i.e. per well of a 96 well plate)
2. Add 25 μl of 0.2 mM ATP and 40 mM magnesium chloride in ADB.
3. Incubate for 60 minutes at RT in a shaking incubator.
4. Transfer this mixture to an anti-GST Ab coated 96 well plate (Nunc Immunosorb plates coated o/n with a-GST.
5. Incubate for 60 minutes at 30° C. in a shaking incubator
6. Wash 3× with TBST, add Anti-Phospho MEK1 (1:1000)
7. Incubate for 60 minutes at 30° C. in a shaking incubator
8. Wash 3× with TBST, add Anti-rabbit Ab/Europium conjugate (Wallac) (1:500)
9. Incubate for 60 minutes at 30° C. in a shaking incubator
10. Add 100 ul of Wallac Delfia Enhancement Solution and shake for 10 minutes.
11. Read plates in Wallac Victor model Plate Reader.
12. Collect data analyze in Excel for single point and IC50 determinations.
Typically Raf-1 assay is run at cpd concentrations from 10 μM to 30 nM in half log dilutions. (% inhibition is determined for each cpd concentration)

[1] = median, cpd concentrations from 10 μM to 30 nM in half log dilutions, read-out: Median IC50

T1 sequence (P15056 whole entry): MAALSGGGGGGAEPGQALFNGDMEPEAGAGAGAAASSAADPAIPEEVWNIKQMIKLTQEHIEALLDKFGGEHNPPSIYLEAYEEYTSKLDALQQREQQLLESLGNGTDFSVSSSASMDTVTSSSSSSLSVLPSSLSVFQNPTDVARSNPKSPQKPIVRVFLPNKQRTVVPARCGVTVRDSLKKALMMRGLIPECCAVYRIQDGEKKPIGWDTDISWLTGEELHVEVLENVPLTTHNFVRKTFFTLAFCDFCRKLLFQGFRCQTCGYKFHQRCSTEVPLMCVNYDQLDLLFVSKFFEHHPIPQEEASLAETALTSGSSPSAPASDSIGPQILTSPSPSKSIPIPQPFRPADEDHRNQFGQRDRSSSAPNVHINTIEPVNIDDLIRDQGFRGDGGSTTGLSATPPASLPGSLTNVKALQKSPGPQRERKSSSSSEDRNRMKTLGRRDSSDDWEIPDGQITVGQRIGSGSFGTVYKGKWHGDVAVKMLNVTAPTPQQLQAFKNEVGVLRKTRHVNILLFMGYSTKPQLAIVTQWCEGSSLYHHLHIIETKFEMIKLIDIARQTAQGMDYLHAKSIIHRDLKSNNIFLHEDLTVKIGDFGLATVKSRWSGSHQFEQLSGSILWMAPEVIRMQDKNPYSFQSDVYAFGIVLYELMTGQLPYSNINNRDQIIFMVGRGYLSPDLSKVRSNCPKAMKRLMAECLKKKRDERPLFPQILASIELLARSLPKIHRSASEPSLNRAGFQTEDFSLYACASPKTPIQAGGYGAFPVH

Row | SMILES | IC50 [1] [µM] | inhibition at 10 µM [%] | inhibition at 10 µM (single point assay, 10 uM) [%] | IC50 [µM]
1 | CN1CCCC1CCNC(=O)c1cnn2c(-c3cccc(NC(=O)c4cccc(C(F)(F)F)c4)c3)ccnc12 (stereo not drawn) [Example 54, N-[2-(1-methylpyrrolidin-2-yl)ethyl]-7-(3-{[3-(trifluoromethyl)benzoyl]amino}phenyl)pyrazolo[1,5-a]pyrimidine-3-carboxamide] | > 10 | 32 |  | 
2 | O=C(Nc1cccc(-c2ccnc3c(C(=O)NCCCn4ccnc4)cnn23)c1)c1cccc(C(F)(F)F)c1 [Example 55, N-[3-(1H-imidazol-1-yl)propyl]-7-(3-{[3-(trifluoromethyl)benzoyl]amino}phenyl)pyrazolo[1,5-a]pyrimidine-3-carboxamide] | 2.1 | 70 |  | 
3 | COCCCNC(=O)c1cnn2c(-c3cccc(NC(=O)c4cccc(C(F)(F)F)c4)c3)ccnc12 [Example 56, N-(3-methoxypropyl)-7-(3-{[3-(trifluoromethyl)benzoyl]amino}phenyl)pyrazolo[1,5-a]pyrimidine-3-carboxamide] | 1 | 60 |  | 
4 | O=C(Nc1cccc(-c2ccnc3c(C(=O)NCc4ccccc4)cnn23)c1)c1cccc(C(F)(F)F)c1 [Example 57, N-benzyl-7-(3-{[3-(trifluoromethyl)benzoyl]amino}phenyl)pyrazolo[1,5-a]pyrimidine-3-carboxamide] | 1.64 | 51 |  | 
5 | CCOC(=O)c1c(C)nn2c(-c3cccc(NC(=O)c4cccc(C(F)(F)F)c4)c3)ccnc12 [Example 58, Ethyl 2-methyl-7-(3-{[3-(trifluoromethyl)benzoyl]amino}phenyl)pyrazolo[1,5-a]pyrimidine-3-carboxylate] | > 10 | 4 |  | 
6 | O=C(Nc1cccc(-c2ccnc3c(-c4ccccn4)cnn23)c1)c1cccc(C(F)(F)F)c1 [Example 59, N-[3-(3-pyridin-2-ylpyrazolo[1,5-a]pyrimidin-7-yl)phenyl]-3-(trifluoromethyl)benzamide] | > 10 | 37 |  | 
7 | O=C(Nc1cccc(-c2ccnc3c(-c4nn[nH]n4)cnn23)c1)c1cccc(C(F)(F)F)c1 [Example 60, N-{3-[3-(2H-tetrazol-5-yl)pyrazolo[1,5-a]pyrimidin-7-yl]phenyl}-3-(trifluoromethyl)benzamide] | > 10 | 1 |  | 
8 | NC(=O)c1cnn2c(-c3cccc(NC(=O)c4cccc(C(F)(F)F)c4)c3)ccnc12 [Example 61, 7-(3-{[3-(trifluoromethyl)benzoyl]amino}phenyl)pyrazolo[1,5-a]pyrimidine-3-carboxamide] | > 10 | 16 |  | 
9 | N#Cc1c(N2CCNCC2)nn2c(-c3cccc(NC(=O)c4cccc(C(F)(F)F)c4)c3)ccnc12 [Example 62, N-[3-(3-cyano-2-piperazin-1-ylpyrazolo[1,5-a]pyrimidin-7-yl)phenyl]-3-(trifluoromethyl)benzamide] |  | 54 |  | 
10 | N#Cc1cnn2c(-c3cccc(NC(=O)c4cccc(C(F)(F)F)c4)c3)ccnc12 [Example 63, N-[3-(3-cyanopyrazolo[1,5-a]pyrimidin-7-yl)phenyl]-3-(trifluoromethyl)benzamide] | > 10 |  | 14 | 
11 | CCOC(=O)c1c(C)nn2c(-c3cccc(NC(=O)c4ccc(C)c(C(F)(F)F)c4)c3)ccnc12 [Example 64, ethyl 2-methyl-7-(3-{[4-methyl-3-(trifluoromethyl)benzoyl]amino}phenyl)pyrazolo[1,5-a]pyrimidine-3-carboxylate] | > 10 | 4 |  | 
12 | Cc1ccc(C(=O)Nc2cccc(-c3ccnc4c(-c5ccccn5)cnn34)c2)cc1C(F)(F)F [Example 65, 4-methyl-N-[3-(3-pyridin-2-ylpyrazolo[1,5-a]pyrimidin-7-yl)phenyl]-3-(trifluoromethyl)benzamide] | > 10 | 30 |  | 
13 | Cc1ccc(C(=O)Nc2cccc(-c3ccnc4c(-c5nn[nH]n5)cnn34)c2)cc1C(F)(F)F [Example 66, 4-methyl-N-{3-[3-(2H-tetrazol-5-yl)pyrazolo[1,5-a]pyrimidin-7-yl]phenyl}-3-(trifluoromethyl)benzamide] | > 10 | 18 |  | 
14 | Cc1ccc(C(=O)Nc2cccc(-c3ccnc4c(C(N)=O)cnn34)c2)cc1C(F)(F)F [Example 67, 7-(3-{[4-methyl-3-(trifluoromethyl)benzoyl]amino}phenyl)pyrazolo[1,5-a]pyrimidine-3-carboxamide] | > 10 | 6 |  | 
15 | Cc1ccc(C(=O)Nc2cccc(-c3ccnc4c(C#N)c(N5CCNCC5)nn34)c2)cc1C(F)(F)F [Example 68, N-[3-(3-cyano-2-piperazin-1-ylpyrazolo[1,5-a]pyrimidin-7-yl)phenyl]-4-methyl-3-(trifluoromethyl)benzamide] | 8.4 | 45 |  | 
16 | Cc1ccc(C(=O)Nc2cccc(-c3ccnc4c(C#N)cnn34)c2)cc1C(F)(F)F [Example 69, N-[3-(3-cyanopyrazolo[1,5-a]pyrimidin-7-yl)phenyl]-4-methyl-3-(trifluoromethyl)benzamide] | > 10 | 13 |  | 
17 | CCOC(=O)c1cnn2c(-c3cccc(NC(=O)c4cccc(Cl)c4)c3)ccnc12 [Example 70, Ethyl 7-{3-[(3-chlorobenzoyl)amino]phenyl}pyrazolo[1,5-a]pyrimidine-3-carboxylate] | > 10 | 0 |  | 
18 | CCOC(=O)c1cnn2c(-c3cccc(NC(=O)c4ccc(Cl)c(Cl)c4)c3)ccnc12 [Example 71, ethyl 7-{3-[(3,4-dichlorobenzoyl)amino]phenyl}pyrazolo[1,5-a]pyrimidine-3-carboxylate] | > 10 | 0 |  | 
19 | CCOC(=O)c1cnn2c(-c3cccc(NC(=O)c4cc(Cl)cc(Cl)c4)c3)ccnc12 [Example 72, ethyl 7-{3-[(3,5-dichlorobenzoyl)amino]phenyl}pyrazolo[1,5-a]pyrimidine-3-carboxylate] | > 10 | 4 |  | 
20 | CCOC(=O)c1cnn2c(-c3cccc(NC(=O)c4ccc(OC)c(Cl)c4)c3)ccnc12 [Example 73, ethyl 7-{3-[(3-chloro-4-methoxybenzoyl)amino]phenyl}pyrazolo[1,5-a]pyrimidine-3-carboxylate] | > 10 | 5 |  | 
21 | CCOC(=O)c1cnn2c(-c3cccc(NC(=O)c4cc(Cl)ccc4C)c3)ccnc12 [Example 74, ethyl 7-{3-[(5-chloro-2-methylbenzoyl)amino]phenyl}pyrazolo[1,5-a]pyrimidine-3-carboxylate] | > 10 | 10 |  | 
22 | CCOC(=O)c1cnn2c(-c3cccc(NC(=O)c4cc(F)cc(C(F)(F)F)c4)c3)ccnc12 [Example 75, ethyl 7-(3-{[3-fluoro-5-(trifluoromethyl)benzoyl]amino}phenyl)pyrazolo[1,5-a]pyrimidine-3-carboxylate] | 6.6 | 58 |  | 
23 | CCOC(=O)c1cnn2c(-c3cccc(NC(=O)c4ccc(F)cc4C(F)(F)F)c3)ccnc12 [Example 76, ethyl 7-(3-{[4-fluoro-2-(trifluoromethyl)benzoyl]amino}phenyl)pyrazolo[1,5-a]pyrimidine-3-carboxylate] | > 10 | 0 |  | 
24 | CCOC(=O)c1cnn2c(-c3cccc(NC(=O)Nc4cc(OC)cc(C(F)(F)F)c4)c3)ccnc12 [Example 77, ethyl 7-{3-[({[3-methoxy-5-(trifluoromethyl)phenyl]amino}carbonyl)amino]phenyl}pyrazolo[1,5-a]pyrimidine-3-carboxylate] | 0.99 | 72 |  | 
25 | CCOC(=O)c1cnn2c(-c3cccc(NC(=O)Nc4ccc(C#N)c(C(F)(F)F)c4)c3)ccnc12 [Example 78, ethyl 7-{3-[({[4-cyano-3-(trifluoromethyl)phenyl]amino}carbonyl)amino]phenyl}pyrazolo[1,5-a]pyrimidine-3-carboxylate] |  |  | 85 | 0.57
26 | CCOC(=O)c1cnn2c(-c3cccc(NC(=O)Nc4ccc(C)c(C(F)(F)F)c4)c3)ccnc12 [Example 79, ethyl 7-{3-[({[4-methyl-3-(trifluoromethyl)phenyl]amino}carbonyl)amino]phenyl}pyrazolo[1,5-a]pyrimidine-3-carboxylate] | 0.37 | 88 |  | 
